Experimental data from publication PMC4982760, “Small-molecule inhibitors identify the RAD52-ssDNA interaction as critical for recovery from replication stress and for survival of BRCA2 deficient cells” (eLife, 2016).
Where a name gives a salt, the structure may show the parent alone. Read-outs that look alike come from different tables or passages of the source.

How the values were obtained:
RAD52-ssDNA interaction = target: T1, RAD52-ssDNA interaction (Homo sapiens, UniProt P43351); experiment: FRET-based ssDNA binding and wrapping assay (RAD52-Cy3-dT30-Cy5 complex); settings: for IC50 range for inhibition of ssDNA binding, in words / FRET value at saturation: 1 nM Cy3-dT30-Cy5, 8 nM RAD52; for FRET value at saturation: ssDNA
T1 construct: made in house
T1 sequence (P43351 1-418): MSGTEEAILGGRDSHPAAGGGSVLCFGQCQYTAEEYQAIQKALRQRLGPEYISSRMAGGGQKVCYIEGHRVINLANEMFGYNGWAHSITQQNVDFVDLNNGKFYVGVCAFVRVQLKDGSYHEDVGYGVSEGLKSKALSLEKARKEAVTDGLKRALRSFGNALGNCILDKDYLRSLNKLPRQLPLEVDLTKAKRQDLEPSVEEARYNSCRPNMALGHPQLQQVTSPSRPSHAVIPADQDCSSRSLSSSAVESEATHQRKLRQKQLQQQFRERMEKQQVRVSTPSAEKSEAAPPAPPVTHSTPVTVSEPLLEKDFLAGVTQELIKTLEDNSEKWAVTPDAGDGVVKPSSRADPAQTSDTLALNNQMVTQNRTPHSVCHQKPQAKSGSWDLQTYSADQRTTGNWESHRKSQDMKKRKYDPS
Procedure: We titrated increasing amounts of each compound into a cuvette containing preformed stoichiometric RAD52-Cy3-dT30-Cy5 complexes (1 nM Cy3-dT30-Cy5 and 8 nM RAD52). […] At each concentration of the compound, the FRET signal was adjusted for the change in Cy3 and Cy5 fluorescence in the presence of the compound, but in the absence of protein.
FRET-based ssDNA binding, dsDNA binding, and annealing assays were carried out as previously described ([Grimme et al., 2010]; [Grimme and Spies, 2011]) using Cary Eclipse spectrofluorimeter (Varian) at 25°C in buffer containing 30 mM Tris-Acetate pH7.5, 1 mM DTT, and 0.1 mg/mL BSA. Cy3 dye was excited at 530 nm and its emission was monitored at 565 nm. Emission of Cy5 acceptor fluorophore excited through the energy transfer from Cy3 donor is monitored at 660 nm simultaneously with emission of Cy3 dye. Both the excitation and the emission slit widths were set to 10 nm.
All experiments were performed in triplicates, and the data are shown as averages and standard deviations for three independent measurements. To remove possible experimental artifacts associated with chromogenic or fluorogenic compounds, as well as with the compounds that may quench or enhance Cy3 or Cy5 fluorescence, we also performed control titrations whereby we titrated each compound into 1 nM Cy3-dT30-Cy5 in the absence of RAD52. For each compound concentration we subtracted the difference in the FRET signal in the presence and absence of the compound from the respective FRET signal in the presence of RAD52. The FRET signal corrected for the compound fluorescence was calculated using the equation: FRETapp=4.2∗ICy5/4.2∗ICy5+ 1.7∗ICy3
as previously described ([Grimme et al., 2010]; [Grimme and Spies, 2011]) and plotted as a function of compound concentration and fitted to the following inhibition model” FRET([small molecule])=FRET0−FRETmin/1+10^(LogIC50−Log([small molecule])∗HillSlope),
where FRET0 is the initial FRET value of the RAD52-ssDNA complex in the absence of the compound and FRETmin is the FRET value at complete inhibition. FRET values were calculated as an average of three or more independent annealing reactions plotted against the concentration of the compound. Inhibition of the RAD52-dsDNA interaction was assayed in a similar experiments, except the stoichiometric complexes containing 1 nM molecules of Cy3-Oligo28-Cy5 duplex DNA and 10 nM RAD52.

[1] = target: T2, RAD52-mediated ssDNA annealing (Homo sapiens, UniProt P43351); experiment: FRET-based RAD52-mediated ssDNA annealing assay; format: biochemical
T2 construct: made in house
T2 sequence (P43351 1-418): T1 sequence (P43351 1-418)
Description: To determine how the selected compounds affect the ssDNA annealing function of RAD52 we performed FRET-based annealing assays ([Grimme et al., 2010]; [Grimme and Spies, 2011]). These assays utilize two complementary single stranded 28-nucleotide-long substrates, which contain either Cy3 (T-28) or Cy5 (P-28) incorporated into the middle of the respective DNA strand. When the substrates are annealed by RAD52, the Cy3 and Cy5 dyes are separated by 3 base pairs and yield a high FRET signal (Figure 2—figure supplement 2). […] The annealing reactions were initiated by mixing two half reactions and observing the change in FRET over time in the presence of varying concentrations of small molecules. An increasing FRET value over time indicates the formation of the dsDNA duplex which brings the two dyes in close proximity (Figure 2—figure supplement 2). Fitting the annealing data to a double exponential allowed us to calculate and compare the final extent of annealing at varying concentrations of each compound compared to RAD52 alone. We plotted the final extent of annealing vs the concentration of the compound and calculated an IC50 of annealing inhibition. […] At the stoichiometric RAD52: dsDNA ratio, (1 nM dsDNA: 10 nM RAD52) the dsDNA is bent upon RAD52 binding, which allows us to distinguish the RAD52-bound and free dsDNA (Figure 2—figure supplement 1).
Annealing of complementary oligonucleotides by RAD52 was monitored under identical conditions as the binding assays described above. For each assay, the reaction master mixture containing 8 nM RAD52 protein in the presence and absence of the compounds at varying concentrations was prepared at room temperature and divided into two half reactions. Following baseline buffer and protein measurements, 0.5 nM of T-28 ssDNA substrate was added to the reaction cuvette and the signal was allowed to stabilize. The annealing reaction was initiated upon addition of the second half-reaction pre-incubated with 0.5 nM P-28 ssDNA substrate. The fluorescence of Cy3 and Cy5 were measured simultaneously over the reaction time course (500 s). FRETapp values were calculated as an average of three or more independent annealing reactions plotted against time (s). The average FRET values were fitted to a double exponential to calculate the final extent of annealing using Graphpad Prism4 software. The calculated annealing extent was plotted as a function of compound concentration and fitted to the same model as we used to determine IC50 values for the inhibition of DNA annealing.

[2] = 1 nM Cy3-dT30-Cy5, 8 nM RAD52, 25°C, read-out: IC50 (DNA binding), ssDNA
[3] = 8 nM RAD52, 0.5 nM T-28 and 0.5 nM P-28, read-out: IC50 (Annealing extent), ssDNA
[4] = read-out: IC50 (Annealing extent), ssDNA, 8 nM RAD52, 0.5 nM T-28 and 0.5 nM P-28

Row | Compound | IC50 range for inhibition of ssDNA binding, in words (RAD52-ssDNA interaction) | IC50 (RAD52-ssDNA interaction; [2]) [µM] | FRET value at saturation (RAD52-ssDNA interaction) | IC50 [1, 3] [µM] | IC50 (RAD52-ssDNA interaction) [µM] | IC50 [1, 4] [µM] | IC50 [1] [µM]
1 | C[C@H]1[C@H](C)CC[C@]2(C(=O)O)CC[C@]3(C)C(=CC[C@@H]4[C@@]5(C)C[C@@H](O)[C@H](O)[C@@](C)(CO)[C@@H]5CC[C@]43C)[C@H]12 [Compound 18, Asiatic Acid] | high micro-molar range | > 800 |  | > 100 |  |  | 
2 | CN(C)[C@@H]1C(O)=C(C(=O)NCN2CCCC2)C(=O)[C@@]2(O)C(O)=C3C(=O)c4c(O)cccc4[C@@](C)(O)[C@H]3C[C@@H]12 [Compound 4, Rolitetracycline] | mid micro-molar range |  | 0.56 ± 0.04 |  | 29 ± 8.2 | > 100 | 
3 | NCCc1cc(O)c(O)cc1O [Compound 14, Oxidopamine] | nano-molar range |  | 0.50 ± 0.01 |  | 0.779 ± 0.051 | > 100 | 
4 | COc1cc(N)c(Cl)cc1C(=O)NC1CCN(CCCOc2ccc(F)cc2)CC1OC (centres unmarked) [Compound 16, Cisapride Monohydrate] |  |  | 0.50 ± 0.01 |  |  |  | 
5 | CC1(C)C(=O)C=C[C@@]2(C)C1=C(O)C(=O)[C@]1(C)[C@@H]2CC[C@@]2(C)[C@H](c3ccoc3)C[C@H]3O[C@]321 [Compound 17, Cedrelone] | high micro-molar range | > 300 |  | > 100 |  |  | 
6 | O=c1c(O)c(-c2ccc(O)c(O)c2)oc2c(O)c(O)cc(O)c12 [Compound 19, Gossypetin] | nano-molar range |  | 0.49 ± 0.01 |  | 0.913 ± 0.058 |  | 6 ± 2.3

Further lines, with some results ahead:

Row | IC50 range for inhibition of ssDNA binding, in words (RAD52-ssDNA interaction) | IC50 (RAD52-ssDNA interaction; [2]) [µM] | FRET value at saturation (RAD52-ssDNA interaction) | IC50 [1, 3] [µM] | Compound | IC50 (RAD52-ssDNA interaction) [µM] | IC50 [1, 4] [µM] | IC50 [1] [µM]
7 | nano-molar range | 0.255 ± 0.016 | 0.41 ± 0.004 | 20 ± 0.7 | O=C(O[C@@H]1Cc2c(O)cc(O)cc2O[C@@H]1c1ccc(O)c(O)c1)c1cc(O)c(O)c(O)c1 [Compound 5, (−)−Epicatechin gallate] |  |  | 
8 | micro-molar range | 2 ± 0.17 | 0.47 ± 0.01 | 3.8 ± 0.2 | C=C1c2cccc(O)c2C(=O)C2=C(O)[C@]3(O)C(=O)C(C(N)=O)=C(O)[C@@H](N(C)C)[C@@H]3[C@@H](O)[C@H]12 [Compound 3, Methacycline Hydrochloride] |  |  | 
9 | micro-molar range | 1.45 ± 0.11 | 0.51 ± 0.01 | > 100 | Oc1cc(O)c2c(c1)O[C@H](c1ccc(O)c(O)c1)[C@H](O)C2 [Compound 7, (−)−Epicatechin] |  |  | 
10 | nano-molar range | 0.563 ± 0.04 | 0.51 ± 0.01 | 5.6 ± 0.6 | O=C1c2ccc(O)c(O)c2C(=O)c2c(O)ccc(O)c21 [Compound 15, Quinalizarin] |  |  | 
